From patent US6548540B2, “Method of treating cancer using dithiocarbamate derivatives” (Charlotte-Mecklenburg Hospital Authority, priority 1998, dated 2003) come the findings set out here.

SMILES strings stand for the structures. Like-named read-outs stand apart in the source and are kept apart here.

The subject of experiment [1] is Adenosquamous lung carcinoma NCI-H596. The experiment can be described thus: MTT proliferation assay, adenosquamous lung carcinoma. As to conditions: Homo sapiens, read-out: Mean Percent Inhibition of Growth; for inhibition at 0.625 µM: disulfiram 0.625 μM; for inhibition at 1.25 µM: disulfiram 1.25 μM; for inhibition at 2.5 µM: disulfiram 2.5 μM; for inhibition at 5 µM: disulfiram 5.0 μM. It is filed as cell-based. The method, then:
(§1) Human malignant cell lines were obtained from American Type Tissue Culture Collection (Rockville, Md.). Melanoma cells lines CRL 1585 and 1619 were cultured in RPMI 1640 (GIBCO-BRL, Life Technologies, Grand Island, N.Y.) with 10% FBS and passed with nonenzymatic Cell Dissociation Solution® (Sigma). The prostate adenocarcinoma cell line CRL 1435 (PC-3) was also cultured in RPMI 1640 with 10% FBS but passed with 0.05% trypsin and 0.53 mM EDTA. The squamous lung carcinoma NCI-H520 and the adenosquamous lung carcinoma NCI-H596 cell lines were grown in RPMI 1640 supplemented with 10% FBS, 10 mM HEPES and 1.0 mM sodium pyruvate and passed with trypsin/EDTA. The small cell lung carcinoma NCI-H82 was cultured as a suspension in RPMI 1640 with 10% FBS. All of the above were grown in a 37° C. humidified environment containing 5% CO2/air. The breast carcinoma cell line MDA-MB-453 was grown in a 37° C. humidified environment with free gas exchange with atmospheric air using Leibovitz's L-15 medium with 2 mM L-glutamine and 10% FBS and was passed with trypsin/EDTA.
(§2) The effect of disulfiram (0.15 to 5.0 μM), diethyldithiocarbamate (DDC, 1.0 μM) or PDTC (0.625 to 5.0 μM) on proliferation of malignant cell lines was studied in cultures stimulated with 10% FBS. Cell numbers were quantitated 24-72 hours later. In some experiments disulfiram or PDTC were added immediately after cells were plated. In other experiments, cells were plated and allowed to grow for 24-72 hours before fresh media with disulfiram or PDTC was added, and cell numbers were assayed 24-72 hours later. Synergy was studied between disulfiram and N,N′-bis(2-chloroethyl-N-nitrosourea (carmustine or BCNU, 1.0 to 1,000 μM) or cisplatin (0.1 to 100 μg/ml) added to medium. The effect of metals on disulfiram was studied with 0.2 to 10 μM copper (provided as CuSO4), zinc (as ZnCl2), silver (as silver lactate) or gold (as HAuCl4.3H2O) ions added to growth medium. No pH changes occurred with addition of metal salts to culture medium. To provide a biologically relevant source of copper, in some experiments medium was supplemented with human ceruloplasmin at doses replicating low and high normal adult serum concentrations (250 and 500 μg/ml).
(§3) Proliferation of cultured cells was quantitated using a previously reported calorimetric method based upon metabolic reduction of the soluble yellow tetrazolium dye 3-[4,5-dimethylthiazol]-2yl-2,5-diphenyl tetrazolium bromide (MTT) to its insoluble purple formazan by the action of mitochondrial succinyl dehydrogenase (See, e.g., S. J. Hirst, et al., “Quantifying proliferation of cultured human and rabbit airway smooth muscle in response to serum and platelet derived growth factor,” Am. J. Respir. Cell Mol. Biol. 7:574-581 (1992); R. Dashtaki, et al. R., supra; S. S. Brar, et al., “Requirement for reactive oxygen species in serum-induced and platelet-derived growth factor-induced growth of airway smooth muscle,” J. Biol. Chem. 274:20017-20026 (1999)). This assay empirically distinguishes between dead and living cells. For proliferation studies, cells were seeded into 24-well uncoated plastic plates (Costar) at 50,000 cells per well and cultured with respective media and mitogens. After 24-96 hours, medium was removed, cells were washed twice with 1 ml of sterile Dulbecco's modified phosphate buffered saline without Ca^2+ or Mg^2+ (DPBS), the medium was replaced with 1 ml/well fresh medium containing 100 μg/ml MTT, and plates were incubated an additional hour. MTT-containing medium was removed, 0.5 ml dimethylsulfoxide (DMSO) was added to each well, and the absorbance of the solubilized purple formazan dye was measured at 540 nm. A total of 4-6 wells were studied at each treatment condition. Preliminary studies were performed with 50-200 μg/ml MTT incubated for 15 minutes to 3 hours to determine the optimum concentration and incubation time at which the rate of conversion was linear and proportional to the number of cells present. […]
In general terms: Tetrazolium dyes change colour on reduction, which living cells bring about.

The test system of another experiment is M1619 cells. The experiment can be described thus: Intracellular reactive oxygen species, dichlorofluorescin probe. The class given is cell-based, human. The procedure: Potential redox effects of disulfiram were studied in three sets of experiments. The importance of cellular glutathione (GSH) in mediating or modulating thiocarbamate toxicity was studied by measuring levels of intracellular GSH after treatment with disulfiram. […] Also, to assess whether a nonspecific antioxidant effect of disulfiram or PDTC might account for cellular growth inhibition, we studied the effect of the potent lipophilic antioxidant probucol (1.0 to 1,000 μM) on proliferation of malignant cell lines. […] A. Royall, et al., “Evaluation of 2′,7′-dichlorofluorescin and dihydrorhodamine 123 as fluorescent probes for intracellular H2O2 in cultured endothelial cells,” Archiv. Biochem. Biophys. 302:348-355 (1993)). […] Cells were plated in 24 well plastic plates at 50,000 cells per well and grown to confluence. Media was aspirated from wells and replaced with 100 μl medium containing 10 μM DCF-DA, and plates were incubated at 37° C. for 30 minutes. The DCF-DA containing media was aspirated, cells were washed twice with media alone and 100 μl fresh media was added to wells. […] The relative concentration of dichlorofluroescein was measured immediately by monitoring fluorescence at 37° C. using an excitation wavelength of 485 nm and emission wavelength of 535 nm.

For experiment [2], the system named is Breast carcinoma MDA-MB-453. The experiment can be described thus: MTT proliferation assay, breast carcinoma. The class given is cell-based. As to conditions: Homo sapiens, read-out: Mean Percent Inhibition of Growth; for inhibition at 0.625 µM: disulfiram 0.625 μM; for inhibition at 1.25 µM: disulfiram 1.25 μM; for inhibition at 2.5 µM: disulfiram 2.5 μM; for inhibition at 5 µM: disulfiram 5.0 μM. The method, then:
as §1, §2, §3

Experiment [3] deals with Squamous lung carcinoma NCI-H520. The experiment can be described thus: MTT proliferation assay, squamous lung carcinoma. The class given is cell-based. As to conditions: Homo sapiens, treatment initially, after 48 hours, 10% FBS, read-out: Mean Percent Inhibition of Growth. The procedure:
as §1
The effect of disulfiram (0.15 to 5.0 μM), diethyldithiocarbamate (DDC, 1.0 μM) or PDTC (0.625 to 5.0 μM) on proliferation of malignant cell lines was studied in cultures stimulated with 10% FBS. Cell numbers were quantitated 24-72 hours later. In some experiments disulfiram or PDTC were added immediately after cells were plated. In other experiments, cells were plated and allowed to grow for 24-72 hours before fresh media with disulfiram or PDTC was added, and cell numbers were assayed 24-72 hours later. […]
Proliferation of cultured cells was quantitated using a previously reported calorimetric method based upon metabolic reduction of the soluble yellow tetrazolium dye 3-[4,5-dimethylthiazol]-2yl-2,5-diphenyl tetrazolium bromide (MTT) to its insoluble purple formazan by the action of mitochondrial succinyl dehydrogenase (See, e.g., S. J. Hirst, et al., “Quantifying proliferation of cultured human and rabbit airway smooth muscle in response to serum and platelet derived growth factor,” Am. J. Respir. Cell Mol. Biol. 7:574-581 (1992); R. Dashtaki, et al. R., supra; S. S. Brar, et al., “Requirement for reactive oxygen species in serum-induced and platelet-derived growth factor-induced growth of airway smooth muscle,” J. Biol. Chem. 274:20017-20026 (1999)). […] MTT-containing medium was removed, 0.5 ml dimethylsulfoxide (DMSO) was added to each well, and the absorbance of the solubilized purple formazan dye was measured at 540 nm. […]

Where [4] appears, read: treatment after 24 hours of growth, additional 24 hours.
The mark [5] stands for this setting: treatment initially, after 48 hours, 10% FBS.
[6] abbreviates: section 'Treatment after 24 hours' (breast grown 48 hours), additional 48 hours.

Broadly, the inhibition is the change of the read-out against control, counted positive when it falls. For `CCN(CC)C(=S)SSC(=S)N(CC)CC` [Disulfiram, tetraethylthiuram disulfide], the inhibition at 0.625 µM in experiment [1] (setting [4]) turned out to be 30 ± 3%; in experiment [1] (setting [5]), 47 ± 4%; in experiment [2] (setting [6]), 26 ± 5%; in experiment [2] (setting [5]), 69 ± 4%; in experiment [3] (disulfiram 0.625 μM) it was 76 ± 3%. Besides, the inhibition at 1.25 µM in experiment [1] (setting [4]) worked out at 30 ± 3%; in experiment [1] (setting [5]), 57 ± 4%; in experiment [2] (setting [6]), 26 ± 2%; in experiment [2] (setting [5]), 94 ± 2%; in experiment [3] (disulfiram 1.25 μM) it was 82 ± 4%. Also, the inhibition at 2.5 µM was found to be 29 ± 1% in experiment [1] (setting [4]); 50 ± 3% in experiment [1] (setting [5]); 39 ± 2% in experiment [2] (setting [6]); 100% in experiment [2] (setting [5]); 77 ± 4% in experiment [3] (disulfiram 2.5 μM). In addition, the inhibition at 5 µM was 34 ± 3% in experiment [1] (setting [4]); 50 ± 4% in experiment [1] (setting [5]); 46 ± 4% in experiment [2] (setting [6]); 100% in experiment [2] (setting [5]); 78 ± 3% in experiment [3] (disulfiram 5.0 μM). Further, the “generation of reactive oxygen species (dichlorofluorescein fluorescence vs baseline)” value with M1619 cells (1.25 μM disulfiram and 0.2 to 1.6 μM CuSO4) was “not increased”; in the experiment with M1619 cells (disulfiram 0.625 to 5 μM) it was “not increased”.
